# Experimental data published in US20160271263A1 (Novo Nordisk A/S, priority 2010, published 2016).
# Numbered stars: 1 amine (or outer) side, 2 acyl side, 3 side chain; on linkers, the order of the positions; unused ones are H or OH. Side chains are listed from the residue outwards. Peptide text beside a SMILES is read from it. * marks the point of attachment. C18 diacid = O=C(O)CCCCCCCCCCCCCCCCC(=O)*; γGlu = O=C(O)[C@H](CCC(=O)[*:2])N[*:1]; AEEA = NCCOCCOCC(=O)O
# Target: glucagon receptor (Homo sapiens, UniProt P47871)
# Sequence (P47871 26-477): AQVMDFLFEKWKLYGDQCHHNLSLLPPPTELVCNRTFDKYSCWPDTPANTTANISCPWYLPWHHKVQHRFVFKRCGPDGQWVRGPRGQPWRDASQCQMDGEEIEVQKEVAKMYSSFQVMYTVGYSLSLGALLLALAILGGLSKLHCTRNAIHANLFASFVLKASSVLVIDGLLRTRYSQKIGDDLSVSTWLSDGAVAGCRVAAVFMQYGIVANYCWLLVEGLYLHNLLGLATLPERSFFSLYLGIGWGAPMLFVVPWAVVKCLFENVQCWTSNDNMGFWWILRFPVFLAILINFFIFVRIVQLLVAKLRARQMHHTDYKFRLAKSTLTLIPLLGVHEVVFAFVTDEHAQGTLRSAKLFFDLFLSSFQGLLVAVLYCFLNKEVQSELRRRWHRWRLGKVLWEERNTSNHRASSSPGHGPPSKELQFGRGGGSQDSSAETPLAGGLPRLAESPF
# Assay: cell-based
row,SMILES,EC50 [pM]
1,"CC(C)C[C@H](NC(=O)[C@H](Cc1ccc(O)cc1)NC(=O)[C@H](CCCNC(=N)N)NC(=O)[C@H](CO)NC(=O)[C@H](Cc1ccc(O)cc1)NC(=O)[C@H](CC(=O)O)NC(=O)[C@H](CO)NC(=O)[C@@H](NC(=O)[C@H](Cc1ccccc1)NC(=O)[C@@H](NC(=O)CNC(=O)[C@H](CCC(N)=O)NC(=O)[C@H](CO)NC(=O)[C@@H](N)Cc1c[nH]cn1)[C@@H](C)O)[C@@H](C)O)C(=O)N[C@@H](CC(=O)O)C(=O)N[C@@H](CO)C(=O)N[C@@H](CCCNC(=N)N)C(=O)N[C@@H](CCCNC(=N)N)C(=O)N[C@@H](C)C(=O)N[C@@H](CCC(N)=O)C(=O)N[C@@H](CC(=O)O)C(=O)N[C@@H](Cc1ccccc1)C(=O)N[C@H](C(=O)N[C@@H](CCCCNC(=O)CC[C@H](NC(=O)CC[C@H](NC(=O)COCCOCCNC(=O)COCCOCCNC(=O)CC[C@H](NC(=O)CCCCCCCCCCCCCCCCC(=O)O)C(=O)O)C(=O)O)C(=O)O)C(=O)N[C@@H](Cc1c[nH]c2ccccc12)C(=O)N[C@@H](CC(C)C)C(=O)N[C@@H](CC(C)C)C(=O)N[C@@H](CC(N)=O)C(=O)N[C@H](C(=O)O)[C@@H](C)O)C(C)C [Example 72, N^ε24-[(4S)-4-carboxy-4-[[(4S)-4-carboxy-4-[[2-[2-[2-[[2-[2-[2-[[(4S)-4-carboxy-4-(17-carboxyheptadecanoylamino)butanoyl]amino]ethoxy]ethoxy]acetyl]amino]ethoxy]ethoxy]acetyl]amino]butanoyl]amino]butanoyl]-[Arg^12,Lys^24,Leu^27]-Glucagon] (H-HSQGTFTSDYSRYLDSRRAQDFVK([γGlu-γGlu-AEEA-AEEA-γGlu-C18 diacid])WLLNT-OH; N-terminus and C-terminus assumed)",127
2,"CC(C)C[C@H](NC(=O)[C@H](Cc1ccc(O)cc1)NC(=O)[C@H](CCCCN)NC(=O)[C@H](CO)NC(=O)[C@H](Cc1ccc(O)cc1)NC(=O)[C@H](CC(=O)O)NC(=O)[C@H](CO)NC(=O)[C@@H](NC(=O)[C@H](Cc1ccccc1)NC(=O)[C@@H](NC(=O)CNC(=O)[C@H](CCC(N)=O)NC(=O)[C@H](CO)NC(=O)[C@@H](N)Cc1c[nH]cn1)[C@@H](C)O)[C@@H](C)O)C(=O)N[C@@H](CC(=O)O)C(=O)N[C@@H](CO)C(=O)N[C@@H](CCCNC(=N)N)C(=O)N[C@@H](CCCNC(=N)N)C(=O)N[C@@H](C)C(=O)N[C@@H](CCC(N)=O)C(=O)N[C@@H](CC(=O)O)C(=O)N[C@@H](Cc1ccccc1)C(=O)N[C@H](C(=O)N[C@@H](CCC(N)=O)C(=O)N[C@@H](CCCCNC(=O)CC[C@H](NC(=O)CC[C@H](NC(=O)COCCOCCNC(=O)COCCOCCNC(=O)CC[C@H](NC(=O)CCCCCCCCCCCCCCCCC(=O)O)C(=O)O)C(=O)O)C(=O)O)C(=O)N[C@@H](CC(C)C)C(=O)N[C@@H](CC(C)C)C(=O)N[C@@H](CC(N)=O)C(=O)N[C@H](C(=O)O)[C@@H](C)O)C(C)C [Example 76, N^ε25-[(4S)-4-carboxy-4-[[(4S)-4-carboxy-4-[[2-[2-[2-[[2-[2-[2-[[(4S)-4-carboxy-4-(17-carboxyheptadecanoylamino)butanoyl]amino]ethoxy]ethoxy]acetyl]amino]ethoxy]ethoxy]acetyl]amino]butanoyl]amino]butanoyl]-[Lys^25,Leu^27]-Glucagon]",988
3,"CC(C)C[C@H](NC(=O)[C@H](Cc1ccc(O)cc1)NC(=O)[C@H](CCCCN)NC(=O)[C@H](CO)NC(=O)[C@H](Cc1ccc(O)cc1)NC(=O)[C@H](CC(=O)O)NC(=O)[C@H](CO)NC(=O)[C@@H](NC(=O)[C@H](Cc1ccccc1)NC(=O)[C@@H](NC(=O)CNC(=O)[C@H](CCC(N)=O)NC(=O)[C@H](CO)NC(=O)[C@@H](N)Cc1c[nH]cn1)[C@@H](C)O)[C@@H](C)O)C(=O)N[C@@H](CC(=O)O)C(=O)N[C@@H](CCCCNC(=O)COCCOCCNC(=O)COCCOCCNC(=O)CC[C@H](NC(=O)CC[C@H](NC(=O)CC[C@H](NC(=O)CCCCCCCCCCCCCCCCC(=O)O)C(=O)O)C(=O)O)C(=O)O)C(=O)N[C@@H](CCCNC(=N)N)C(=O)N[C@@H](CCCNC(=N)N)C(=O)N[C@@H](C)C(=O)N[C@@H](CCC(N)=O)C(=O)N[C@@H](CC(=O)O)C(=O)N[C@@H](Cc1ccccc1)C(=O)N[C@H](C(=O)N[C@@H](CCC(N)=O)C(=O)N[C@@H](Cc1c[nH]c2ccccc12)C(=O)N[C@@H](CC(C)C)C(=O)N[C@@H](CC(C)C)C(=O)N[C@@H](CC(N)=O)C(=O)N[C@H](C(=O)O)[C@@H](C)O)C(C)C [Example 77, N^ε16-[2-[2-[2-[[2-[2-[2-[[(4S)-4-carboxy-4-[[(4S)-4-carboxy-4-[[(4S)-4-carboxy-4-(17-carboxyheptadecanoylamino)butanoyl]amino]butanoyl]amino]butanoyl]amino]ethoxy]ethoxy]acetyl]amino]ethoxy]ethoxy]acetyl]-[Lys^16,Leu^27]-Glucagon] (H-HSQGTFTSDYSKYLDK([AEEA-AEEA-γGlu-γGlu-γGlu-C18 diacid])RRAQDFVQWLLNT-OH; N-terminus and C-terminus assumed)",81
4,"CC(C)C[C@H](NC(=O)[C@H](Cc1ccc(O)cc1)NC(=O)[C@H](CCCCN)NC(=O)[C@H](CO)NC(=O)[C@H](Cc1ccc(O)cc1)NC(=O)[C@H](CC(=O)O)NC(=O)[C@H](CO)NC(=O)[C@@H](NC(=O)[C@H](Cc1ccccc1)NC(=O)[C@@H](NC(=O)CNC(=O)[C@H](CCC(N)=O)NC(=O)[C@H](CO)NC(=O)[C@@H](N)Cc1c[nH]cn1)[C@@H](C)O)[C@@H](C)O)C(=O)N[C@@H](CC(=O)O)C(=O)N[C@@H](CCCCNC(=O)CC[C@H](NC(=O)COCCOCCNC(=O)COCCOCCNC(=O)CC[C@H](NC(=O)CC[C@H](NC(=O)CCCCCCCCCCCCCCCCC(=O)O)C(=O)O)C(=O)O)C(=O)O)C(=O)N[C@@H](CCCNC(=N)N)C(=O)N[C@@H](CCCNC(=N)N)C(=O)N[C@@H](C)C(=O)N[C@@H](CCC(N)=O)C(=O)N[C@@H](CC(=O)O)C(=O)N[C@@H](Cc1ccccc1)C(=O)N[C@H](C(=O)N[C@@H](CCC(N)=O)C(=O)N[C@@H](Cc1c[nH]c2ccccc12)C(=O)N[C@@H](CC(C)C)C(=O)N[C@@H](CC(C)C)C(=O)N[C@@H](CC(N)=O)C(=O)N[C@H](C(=O)O)[C@@H](C)O)C(C)C [Example 78, N^ε16-[(4S)-4-carboxy-4-[[2-[2-[2-[[2-[2-[2-[[(4S)-4-carboxy-4-[[(4S)-4-carboxy-4-(17-carboxyheptadecanoylamino)butanoyl]amino]butanoyl]amino]ethoxy]ethoxy]acetyl]amino]ethoxy]ethoxy]acetyl]amino]butanoyl]-[Lys^16,Leu^27]-Glucagon] (H-HSQGTFTSDYSKYLDK([γGlu-AEEA-AEEA-γGlu-γGlu-C18 diacid])RRAQDFVQWLLNT-OH; N-terminus and C-terminus assumed)",122
5,"CC(C)C[C@H](NC(=O)[C@H](Cc1ccc(O)cc1)NC(=O)[C@H](CCCCN)NC(=O)[C@H](CO)NC(=O)[C@H](Cc1ccc(O)cc1)NC(=O)[C@H](CC(=O)O)NC(=O)[C@H](CO)NC(=O)[C@@H](NC(=O)[C@H](Cc1ccccc1)NC(=O)[C@@H](NC(=O)CNC(=O)[C@H](CCC(N)=O)NC(=O)[C@H](CO)NC(=O)[C@@H](N)Cc1c[nH]cn1)[C@@H](C)O)[C@@H](C)O)C(=O)N[C@@H](CC(=O)O)C(=O)N[C@@H](CO)C(=O)N[C@@H](CCCNC(=N)N)C(=O)N[C@@H](CCCNC(=N)N)C(=O)N[C@@H](C)C(=O)N[C@@H](CCC(N)=O)C(=O)N[C@@H](CC(=O)O)C(=O)N[C@@H](Cc1ccccc1)C(=O)N[C@H](C(=O)N[C@@H](CCC(N)=O)C(=O)N[C@@H](Cc1c[nH]c2ccccc12)C(=O)N[C@@H](CC(C)C)C(=O)N[C@@H](CC(C)C)C(=O)N[C@@H](CCCCNC(=O)CC[C@H](NC(=O)CC[C@H](NC(=O)CC[C@H](NC(=O)CCCCCCCCCCCCCCCCC(=O)O)C(=O)O)C(=O)O)C(=O)O)C(=O)N[C@H](C(=O)O)[C@@H](C)O)C(C)C [Example 79, N^ε28-[(4S)-4-carboxy-4-[[(4S)-4-carboxy-4-[[(4S)-4-carboxy-4-(17-carboxyheptadecanoylamino)butanoyl]amino]butanoyl]amino]butanoyl]-[Leu^27,Lys^28]-Glucagon]",141
6,"CC(C)C[C@H](NC(=O)[C@H](Cc1ccc(O)cc1)NC(=O)[C@H](CCCCNC(=O)CC[C@H](NC(=O)CC[C@H](NC(=O)COCCOCCNC(=O)COCCOCCNC(=O)CC[C@H](NC(=O)CCCCCCCCCCCCCCCCC(=O)O)C(=O)O)C(=O)O)C(=O)O)NC(=O)[C@H](CO)NC(=O)[C@H](Cc1ccc(O)cc1)NC(=O)[C@H](CC(=O)O)NC(=O)[C@H](CO)NC(=O)[C@@H](NC(=O)[C@H](Cc1ccccc1)NC(=O)[C@@H](NC(=O)CNC(=O)[C@H](CCC(N)=O)NC(=O)[C@H](CO)NC(=O)[C@@H](N)Cc1c[nH]cn1)[C@@H](C)O)[C@@H](C)O)C(=O)N[C@@H](CC(=O)O)C(=O)N[C@@H](CO)C(=O)N[C@@H](CCCNC(=N)N)C(=O)N[C@@H](CCCNC(=N)N)C(=O)N[C@@H](C)C(=O)N[C@@H](CCC(N)=O)C(=O)N[C@@H](CC(=O)O)C(=O)N[C@@H](Cc1ccccc1)C(=O)N[C@H](C(=O)N[C@@H](CCC(N)=O)C(=O)N[C@@H](Cc1c[nH]c2ccccc12)C(=O)N[C@@H](CC(C)C)C(=O)N[C@@H](CC(C)C)C(=O)N[C@@H](CC(N)=O)C(=O)N1CCC[C@H]1C(=O)O)C(C)C [Example 80, N^ε12-[(4S)-4-carboxy-4-[[(4S)-4-carboxy-4-[[2-[2-[2-[[2-[2-[2-[[(4S)-4-carboxy-4-(17-carboxyheptadecanoylamino)butanoyl]amino]ethoxy]ethoxy]acetyl]amino]ethoxy]ethoxy]acetyl]amino]butanoyl]amino]butanoyl]-[Leu^27,Pro^29]-Glucagon]",1580
